In patent US20050153937A1, “Desensitization of compliment activation using monocyte/macrophage inhibitory compounds” (priority 2003, published 2005):

Test system: complement activation-related acute hypersensitivity (CARPA)
Details: pig, in vivo
Text: Adolescent (2040 kg) Yorkshire pigs of both genders are sedated with i.m. ketamine (Ketalar) and then anesthetized with halothane or isoflurane via nose cone. The trachea is intubated to allow mechanical ventilation with an anesthesia machine, using 1-2.5% halothane or isoflurane. A pulmonary artery catheter equipped with thermodilution-based continuous cardiac output detector is advanced via the right internal jugular vein through the right atrium into the pulmonary artery to measure pulmonary arterial pressure (PAP) and cardiac output (CO). Another catheter is inserted into the right femoral artery and advanced into the proximal aorta for blood sampling and to measure systemic arterial pressure (SAP). Blood pressure values and 2-3 leads of the electrocardiogram (ECG) are obtained continually.
The CARPA-activating compounds used in the following experiments are i) Doxil containing 2 mg/ml doxorubicin HCl and 16 mg/ml lipid (phospholipid concentration: 13.3 mM, 150 μg doxorubicin/μmol phospholipid), ii) multilamellar vesicles (MLV) consisting of dimyristoyl phosphatidylcholine (DMPC), dimyristoyl phosphatidylglycerol (DMPG), and cholesterol at a 45:5:50 ratio, and iii) zymosan. […]

Substance: Zymosan
- reactions to second series of CARPA-activator injections compared with first administration: substantially identical
- time until all physiologic and blood measures return to baseline after injection (iv): ≤ 30 min
